According to patent US7855199B2, “Heterocyclic compound and anti-malignant-tumor agent containing the same as active ingredient” (Zenyaku Kogyo Kabushiki Kaisha, priority 2004, dated 2010):

Columns and labels:
[1] = Test 1 (Pharmacokinetics Study), oral administration to mice, serum drug concentration by HPLC; format: in vivo; details: male, BDF1, mouse, oral 200 mg/kg, mice fasting for 16 hours, 1-24 hours after administration, read-out: AUC1h-24h
Description: Pharmacokinetics study was conducted, using six-week-old BDF1 male mice. Test compound was dissolved in dichloromethane together with hydroxypropyl cellulose (low-molecular weight)(HPC(L)) 2.5 times as much as the drug weight, dried under reduced pressure and was suspended in distilled water so as to have the drug concentration of 20 mg/mL. The test compound was forcedly orally administered to mice fasting for 16 hours with dose of 200 mg/kg. One, two, four, eight and 24 hours after the administration, blood was collected from orbit of two mice to obtain serum 100 μL of the obtained serum was added with internal standard solution and 1 mL of distilled water and then test compound and internal standard substance were extracted from the resulting mixture by diethyl ether. The organic layers were evaporated to dryness under reduced pressure and residues were dissolved in eluent to obtain HPLC measurement sample. The analysis was performed by HPLC with reversed-phase column and the eluent used was acetonitrile-phosphate buffer (pH 2.5). The drug concentration in the test serum was calculated by the calibration curve (Y=aX+b) obtained from standard substance. Area under the curve (AUC1h-24h) was calculated from the drug concentration in the serum, using WinNonlin (produced by the firm Pharsight, ver. 4.01).

Human colon cancer WiDr [2] = test: in vitro antitumor test (50% growth inhibition concentration); format: cell-based
Description: This was also supported by the results of Table 3 below showing test results of in vitro antitumor test (comparative tests in 50% growth inhibition concentrations (GI50 μM) to Human colon cancer WiDr).

Human colon cancer WiDr [3] = test: Test 2 (In Vivo Antitumor Test), subcutaneous WiDr tumor in nude mice; set-up: species or system mutant BALB/c nude mice; key to evaluation: Cases where T/C (%) of the last day was less than 50% and U-assay of Mann-Whitney revealed significant difference with one-sided risk rate of 1% were evaluated to be effective (+); ineffective (−); details: oral 100 mg/kg once a day, six times a week, for two weeks; for evaluation: T/C of the last day and Mann-Whitney U-assay; for T/C (%): relative tumor growth rate, last day
Description: Human colon cancer WiDr was grown as subcutaneous tumor in mutant BALB/c nude mice. 2-mm-cube tumor fragments were transplanted subcutaneously into left flank of the nude mice. When the tumor reached logarithmic growth phase, mice were divided randomly into test groups consisting five mice per group. The samples prepared by dissolving test compound in dichloromethane with a ratio of the test compound to HPC(L) being 1:2.5, dried under reduced pressure and suspended in distilled water. The samples were then orally administered at a rate of test compound 100 mg/kg, once a day and six times a week in total, for two weeks. The length and width of the tumor mass were measured on a daily basis to calculate tumor volume. The tumor volume at each measured day was divided by that at the start day of the sample administration to calculate relative tumor growth rate; and the relative tumor growth rate of the treated groups (T) and that of the control group (C) were used to calculate T/C(%).

| SMILES | AUC(0-t) [1] | melting point | GI50 (Human colon cancer WiDr [2]) | evaluation (Human colon cancer WiDr [3]) | T/C (%) (Human colon cancer WiDr [3]) |
| --- | --- | --- | --- | --- | --- |
| COc1cccc2c1nc(C(F)F)n2-c1nc(N2CCOCC2)cc(N2CCO[C@@H](C)[C@H]2C)n1 (relative stereo) [compound 3, 2-(2-difluoromethyl-4-methoxybenzimidazol-1-yl)-4-(cis-2,3-dimethylmorpholino)-6-morpholinopyrimidine] | 87000 ng·h/mL | 176 to 178 °C |  |  |  |
| COc1cccc2c1nc(C(F)F)n2-c1nc(N2CCOCC2)cc(N2C[C@H](C)O[C@@H](C)C2)n1 (relative stereo) [compound 4, 2-(2-difluoromethyl-4-methoxybenzimidazol-1-yl)-4-(trans-2,6-dimethylmorpholino)-6-morpholinopyrimidine] | 138000 ng·h/mL |  |  |  |  |
| C[C@@H]1OCCN(c2cc(N3CCOCC3)nc(-n3c(C(F)F)nc4c(O)cccc43)n2)[C@@H]1C (relative stereo) [compound C, 2-(2-difluoromethyl-4-hydroxybenzimidazol-1-yl)-4-(cis-2,3-dimethylmorpholino)-6-morpholinopyrimidine, reference compound] | 17000 ng·h/mL |  |  |  |  |
| C[C@H]1CN(c2cc(N3CCOCC3)nc(-n3c(C(F)F)nc4c(O)cccc43)n2)C[C@H](C)O1 (relative stereo) [compound D, 2-(2-difluoromethyl-4-hydroxybenzimidazol-1-yl)-4-(trans-2,6-dimethylmorpholino)-6-morpholinopyrimidine, reference compound] | 68000 ng·h/mL |  |  |  |  |
| COc1cccc2c1nc(C(F)F)n2-c1nc(N2CCOCC2)cc(N2C[C@@H](C)O[C@@H](C)C2)n1 [compound 1, 2-(2-difluoromethyl-4-methoxybenzimidazol-1-yl)-4-(cis-2,6-dimethylmorpholino)-6-morpholinopyrimidine] | 332000 ng·h/mL |  | 450 nM | + (Cases where T/C (%) of the last day was less than 50% and U-assay of Mann-Whitney revealed significant difference with one-sided risk rate of 1% were evaluated to be effective (+)) | 35.7% |
| COc1cccc2c1nc(C(F)F)n2-c1nc(N2CCOCC2)cc(N2CCOC(C)(C)C2)n1 [compound 2, 2-(2-difluoromethyl-4-methoxybenzimidazol-1-yl)-4-(2,2-dimethylmorpholino)-6-morpholinopyrimidine] | 146000 ng·h/mL | 166 to 168 °C | 140 nM | + (Cases where T/C (%) of the last day was less than 50% and U-assay of Mann-Whitney revealed significant difference with one-sided risk rate of 1% were evaluated to be effective (+)) | 28.8% |
| COc1cccc2c1nc(C(F)F)n2-c1nc(N2CCOCC2)cc(N2CCOCC2)n1 [compound 5, 2-(2-difluoromethyl-4-methoxybenzimidazol-1-yl)-4,6-dimorpholinopyrimidine] |  | 203 to 205 °C |  |  |  |
| COc1cccc2c1nc(C(F)F)n2-c1nc(N2CCOCC2)nc(N2C[C@@H](C)O[C@@H](C)C2)n1 [compound 6, 2-(2-difluoromethyl-4-methoxybenzimidazol-1-yl)-4-(cis-2,6-dimethylmorpholino)-6-morpholino-1,3,5-triazine] |  | 235 to 237 °C |  |  |  |
| COc1cccc2c1nc(C(F)F)n2-c1nc(N2CCOCC2)nc(N2CC(C)(C)OCC2(C)C)n1 [compound 7, 2-(2-difluoromethyl-4-methoxybenzimidazol-1-yl)-4-(2,2,5,5-tetramethylmorpholino)-6-morpholino-1,3,5-triazine] |  | 209 to 211 °C |  |  |  |
| CCOc1cccc2c1nc(C(F)F)n2-c1nc(N2CCOCC2)cc(N2CCOCC2)n1 [compound 8, 2-(2-difluoromethyl-4-ethoxybenzimidazol-1-yl)-4,6-dimorpholinopyrimidine] |  | 188 to 190 °C |  |  |  |
| CCOc1cccc2c1nc(C(F)F)n2-c1nc(N2CCOCC2)cc(N2CCOC(C)(C)C2)n1 [compound 9, 2-(2-difluoromethyl-4-ethoxybenzimidazol-1-yl)-4-(2,2-dimethylmorpholino)-6-morpholinopyrimidine] | 88000 ng·h/mL | 114 to 116 °C |  |  |  |
| C[C@@H]1CN(c2cc(N3CCOCC3)nc(-n3c(C(F)F)nc4c(O)cccc43)n2)C[C@H](C)O1 [compound A, 2-(2-difluoromethyl-4-hydroxybenzimidazol-1-yl)-4-(cis-2,6-dimethylmorpholino)-6-morpholinopyrimidine] | 17000 ng·h/mL |  | 150 nM | − | 78.3% |
| CC1(C)CN(c2cc(N3CCOCC3)nc(-n3c(C(F)F)nc4c(O)cccc43)n2)CCO1 [compound B, 2-(2-difluoromethyl-4-hydroxybenzimidazol-1-yl)-4-(2,2-dimethylmorpholino)-6-morpholinopyrimidine, reference compound] | 5000 ng·h/mL |  | 90 nM | − | 88.4% |
